# Laboratory results reported in patent US20210000782A1, “APPLICATION OF DROFENINE OR SALT THEREOF TO PREPARATION OF MEDICINE FOR TREATING PERIPHERAL NEURON AXONAL INJURY AND PERIPHERAL RELATED NEUROPATHY” (NANJING UNIVERSITY OF CHINESE MEDICINE, priority 2018, published 2021).
# Assays:
# [1] = test system: STZ-induced type I diabetic mice; assay: Heat pain testing experiment, type I diabetic peripheral neuropathy; assay type: in vivo, C57BL/6J mice; conditions: n = 6
# Experimental: (§1) 1) Animal grouped administration condition (type I diabetic mice): C57BL/6J mice were purchased from Beijing Vital River. After adaptive feeding for a week, intraperitoneal injection of STZ (180 mg/kg) was performed. Blood glucose was measured after 4-7 days. Mice with the blood glucose higher than 16 mmol/L were randomly selected. After 6 weeks after the STZ injection, grouping was performed according to body weights and the blood glucose to obtain a control group (non-diabetic mice), a model group (DPN mice), drofenine (10 mg/kg), and drofenine (20 mg/kg). Intraperitoneal injection of drofenine was performed for 4 weeks. The motor nerve conduction velocity, mechanical pain and heat pain were respectively tested in 0th week, 4th week and 8th week after the STZ injection.
# (§2) 2) Von Frey tactile measuring suits were purchased from a company, and a plantar test instrument was purchased from UGO company.
# (§3) 4) Heat pain testing experiment: An infrared instrument was placed under the sole of the mouse, and kept still. The time was recorded when the paw of the mouse withdrew. This time was heat pain response time of the mouse.
# [2] = test system: STZ-induced type I diabetic mice; assay: Motor nerve conduction velocity, type I diabetic peripheral neuropathy; assay type: in vivo, C57BL/6J mice; conditions: for Motor nerve conduction velocity: STZ mice, n = 6
# Experimental: as §1
# (§4) 5) Motor nerve conduction velocity testing experiment: (1) Electrode placement: A stimulation electrode was placed at a nerve trunk, a recording electrode was placed at a muscle belly, a reference electrode was placed at a muscle tendon, and a ground wire was placed between the stimulation electrode and the recording electrode. (2) Motor nerve conduction velocity calculation: Super-strong stimulation was performed on distal and proximal ends of the nerve trunk, 2 compound muscle action potentials might be recorded on muscles dominated by this nerve, and different latency periods thereof were measured. The nerve conduction velocity was obtained by dividing a distance between the distal and proximal ends by a latency period difference between two points. A calculation formula was: Nerve conduction velocity (m/s)=distance between two points (cm)×10/latency period difference between two points.
# [3] = test system: db/db type II diabetic mice; assay: Motor nerve conduction velocity, type II diabetic peripheral neuropathy; assay type: in vivo; conditions: for Motor nerve conduction velocity: db/db mice, n = 6
# Experimental: (§5) 2) Animal grouped administration condition (type II diabetic mice): 16-week-old db/db mice were selected and subjected to adaptive feeding for a week. Grouping was performed according to body weights and blood glucose to obtain a control group, a model group, a drofenine low-dose group (10 mg/kg), and a drofenine medium-dose group (20 mg/kg). Before administration, the motor nerve conduction velocity and a 50% mechanical pain threshold were measured to determine DPN symptoms. Intraperitoneal injection of drofenine was performed for 4 weeks. The mechanical pain, heat pain and motor nerve conduction velocity were tested in each week.
# as §4
# [4] = test system: db/db type II diabetic mice; assay: Heat pain testing experiment, type II diabetic peripheral neuropathy; assay type: in vivo; conditions: n = 6
# Experimental: as §5, §2, §3
# [5] = test system: db/db type II diabetic mice; assay: Paw withdrawal experiment (Von Frey, 50% mechanical pain threshold), type II diabetic peripheral neuropathy; assay type: in vivo; conditions: n = 6
# Experimental: (§6) The experiment was based on that when rodents received a mechanical stimulation at their paws, they generated withdrawal reflex. A Von Frey may provide stimulation force in a range of 0.008 g to 300 g. A magnitude of the stimulation force was determined by a thickness and an extending length of a nylon wire. The nylon wire with a proper thickness was selected according to practical conditions in the experiment. The proper extending length was regulated to realize vertical stimulation on the skin. The magnitude of the stimulation force might be regulated by regulating the extending length and changing the nylon wire until the nylon wire bended. The response of mice on the pain was evaluated on the basis.
# as §5, §2
# (§7) 3) Paw withdrawal Experiment: A nylon wire with a proper thickness was selected. A proper extending length was regulated to realize vertical simulation on the skin. The magnitude of stimulation force might be regulated by regulating the extending length and changing the nylon wire until the nylon wire bended. Each mouse was tested for six times to determine a threshold. A 50% mechanical pain threshold of the mice was calculated according to 50% threshold=(10^ (x^f+kδ))/10000.
# [6] = target: BChE (Homo sapiens, UniProt P06276); conditions: background statement; cited from earlier work
# BChE, sequence (P06276 29-602, species assumed): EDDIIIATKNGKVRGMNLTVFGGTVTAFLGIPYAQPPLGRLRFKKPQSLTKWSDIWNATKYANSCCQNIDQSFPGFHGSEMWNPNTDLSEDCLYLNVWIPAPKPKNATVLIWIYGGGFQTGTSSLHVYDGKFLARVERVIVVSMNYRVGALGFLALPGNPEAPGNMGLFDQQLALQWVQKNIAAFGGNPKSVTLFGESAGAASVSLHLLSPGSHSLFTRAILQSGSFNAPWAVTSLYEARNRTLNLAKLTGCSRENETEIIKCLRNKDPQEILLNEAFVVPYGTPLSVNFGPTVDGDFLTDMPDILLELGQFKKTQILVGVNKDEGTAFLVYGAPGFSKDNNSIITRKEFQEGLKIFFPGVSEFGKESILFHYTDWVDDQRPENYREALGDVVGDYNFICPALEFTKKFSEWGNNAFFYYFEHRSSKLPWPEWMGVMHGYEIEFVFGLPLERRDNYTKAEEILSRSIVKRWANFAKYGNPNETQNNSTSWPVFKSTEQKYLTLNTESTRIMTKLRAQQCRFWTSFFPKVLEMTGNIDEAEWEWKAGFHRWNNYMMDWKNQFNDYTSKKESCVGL
# [7] = test system: STZ-induced type I diabetic mice; assay: Paw withdrawal experiment (Von Frey, 50% mechanical pain threshold), type I diabetic peripheral neuropathy; assay type: in vivo, C57BL/6J mice; conditions: n = 6
# Experimental: as §6, §1, §2, §7
# [8] = test system: DRG primary cells (peripheral sensory neurons); assay: Growth of peripheral sensory neurites, β-tubulin III fluorescent staining; assay type: cell-based, C57BL6 mouse; conditions: 24 hours incubation with different concentrations of drofenine, FIG. 1 and FIG. 2
# Experimental: The experiment was based on that DPN firstly leads to abnormality of sensory neurons, and the main pathological changes were axonal atrophy and degeneration, or even disappearance. For DRG, as peripheral sensory neurons, its neurite growth state is closely related to a development process of the DPN. The inventor of the present invention added DMSO and different concentrations of drofenine into DRG primary cells for common incubation for a certain time. Then, the growth of the neurites was determined by a β-tubulin III fluorescent staining detection method, and lengths were quantified by ImageJ. The effect of the drofenine on promoting the growth of the peripheral sensory neurites was evaluated on the basis.
# 1) β-tubulin III for fluorescent staining was purchased from Sigma company. All cell culture reagents were purchased from Gibco company. DRG cells were taken from C57BL6 mouse spines.
# 2) β-tubulin III staining experiment: DRG cells were inoculated in a 12-hole plate at 100 cells/hole. After the DRG cells were attached to a wall overnight, incubation was performed for 24 hours by different concentrations of drofenine. Then, an original culture medium is removed. 4% of paraformaldehyde was added into each hole for immobilization for 15 min. Permeabilization was performed for 5 min by 0.3% Triton. After PBS washing, room-temperature sealing was performed for 1 h. […]
# [9] = 10 mg/kg intraperitoneal, administration week 0, mean ± SEM
# [10] = 10 mg/kg intraperitoneal, administration week 1, mean ± SEM
# [11] = 10 mg/kg intraperitoneal, administration week 2, mean ± SEM
# [12] = 10 mg/kg intraperitoneal, administration week 3, mean ± SEM
# [13] = 10 mg/kg intraperitoneal, administration week 4, mean ± SEM
# [14] = 20 mg/kg intraperitoneal, administration week 0, mean ± SEM
# [15] = 20 mg/kg intraperitoneal, administration week 1, mean ± SEM
# [16] = 20 mg/kg intraperitoneal, administration week 2, mean ± SEM
# [17] = 20 mg/kg intraperitoneal, administration week 3, mean ± SEM
# [18] = 20 mg/kg intraperitoneal, administration week 4, mean ± SEM
structure (smiles),measurement,setting,value
CCN(CC)CCOC(=O)C(c1ccccc1)C1CCCCC1 (stereo not shown) [Drofenine],Heat response,[1]; [9],11.43 ± 0.98 s
same,Heat response,[1]; [10],11.12 ± 0.66 s
same,Heat response,[1]; [11],10.28 ± 0.68 s
same,Heat response,[1]; [12],8.96 ± 0.26 s
same,Heat response,[1]; [13],8.78 ± 0.26 s
same,Heat response,[1]; [14],10.3 ± 0.60 s
same,Heat response,[1]; [15],10.77 ± 0.94 s
same,Heat response,[1]; [16],8.64 ± 0.69 s
same,Heat response,[1]; [17],7.91 ± 0.54 s
same,Heat response,[1]; [18],7.71 ± 0.68 s
same,Motor nerve conduction velocity,[2]; [9],39.61 ± 1.06 m/s
same,Motor nerve conduction velocity,[2]; [11],40.55 ± 2.14 m/s
same,Motor nerve conduction velocity,[2]; [14],40.63 ± 1.03 m/s
same,Motor nerve conduction velocity,[2]; [16],43.82 ± 1.37 m/s
same,motor nerve conduction velocity and sensation loss of the type I diabetic peripheral neuropathy,"[2]; summary in words of Tables 1-3, STZ mice",significantly relieve
same,Motor nerve conduction velocity,[3]; [9],34.61 ± 1.06 m/s
same,Motor nerve conduction velocity,[3]; [10],36.55 ± 2.14 m/s
same,Motor nerve conduction velocity,[3]; [11],38.23 ± 3.20 m/s
same,Motor nerve conduction velocity,[3]; [12],39.34 ± 2.89 m/s
same,Motor nerve conduction velocity,[3]; [13],40.12 ± 2.87 m/s
same,Motor nerve conduction velocity,[3]; [14],35.63 ± 1.03 m/s
same,Motor nerve conduction velocity,[3]; [15],38.82 ± 1.37 m/s
same,Motor nerve conduction velocity,[3]; [16],40.23 ± 2.02 m/s
same,Motor nerve conduction velocity,[3]; [17],41.56 ± 2.35 m/s
same,Motor nerve conduction velocity,[3]; [18],42.28 ± 2.26 m/s
same,motor nerve conduction velocity and sensation loss of db/db type II diabetic peripheral neuropathy,"[3]; summary in words of Tables 4-6, db/db mice",significantly relieve
same,Heat response,[4]; [9],10.43 ± 0.98 s
same,Heat response,[4]; [10],13.52 ± 0.69 s
same,Heat response,[4]; [11],10.58 ± 0.32 s
same,Heat response,[4]; [12],8.96 ± 0.56 s
same,Heat response,[4]; [13],9.78 ± 0.56 s
same,Heat response,[4]; [14],10.39 ± 0.30 s
same,Heat response,[4]; [15],10.77 ± 0.54 s
same,Heat response,[4]; [16],8.54 ± 0.79 s
same,Heat response,[4]; [17],8.51 ± 0.55 s
same,Heat response,[4]; [18],8.01 ± 0.68 s
same,50% paw withdrawal threshold,[5]; [9],2.81 ± 0.17 g
same,50% paw withdrawal threshold,[5]; [10],2.82 ± 0.22 g
same,50% paw withdrawal threshold,[5]; [11],2.21 ± 0.13 g
same,50% paw withdrawal threshold,[5]; [12],2.09 ± 0.34 g
same,50% paw withdrawal threshold,[5]; [13],1.98 ± 0.21 g
same,50% paw withdrawal threshold,[5]; [14],2.83 ± 0.19 g
same,50% paw withdrawal threshold,[5]; [15],2.62 ± 0.26 g
same,50% paw withdrawal threshold,[5]; [16],2.01 ± 0.13 g
same,50% paw withdrawal threshold,[5]; [17],1.92 ± 0.12 g
same,50% paw withdrawal threshold,[5]; [18],1.82 ± 0.01 g
same,BChE inhibition,[6],effective BChE competitive inhibitor
same,50% paw withdrawal threshold,[7]; [9],2.77 ± 0.19 g
same,50% paw withdrawal threshold,[7]; [10],2.53 ± 0.25 g
same,50% paw withdrawal threshold,[7]; [11],1.31 ± 0.13 g
same,50% paw withdrawal threshold,[7]; [12],1.40 ± 0.13 g
same,50% paw withdrawal threshold,[7]; [13],1.45 ± 0.11 g
same,50% paw withdrawal threshold,[7]; [14],2.77 ± 0.19 g
same,50% paw withdrawal threshold,[7]; [15],2.06 ± 0.31 g
same,50% paw withdrawal threshold,[7]; [16],1.31 ± 0.13 g
same,50% paw withdrawal threshold,[7]; [17],1.27 ± 0.12 g
same,50% paw withdrawal threshold,[7]; [18],1.35 ± 0.10 g
same,growth of the peripheral sensory neurites,[8],promote the growth (quantitative diagram) of the peripheral sensory neurites in a concentration dependent way
